By IC50 is commonly meant the midpoint of a concentration-inhibition curve.

Test [1] concerns the target T1, hPAD4 enzyme (Homo sapiens (Human), UniProt Q9UM07). The experiment in a line: RFMS2 assay (RapidFire mass spectrometry, TSTGGRQGSHH peptide substrate). It is filed as biochemical. The conditions noted are these: 35 nM recombinant human PAD4, 500 μM TSTGGRQGSHH peptide, 30 minutes at room temperature; read-out: RFMS 2 IC50. The procedure, abridged: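 IC50 derived from RapidFire LC-MS/MS (positive ESI MRM) of substrate versus product after a 30 min room-temperature reaction stopped with 10% formic acid. Reaction contained 35 nM human PAD4, 500 μM peptide, 2 mM CaCl2, 5 mM DTT at pH 7.4, and compounds diluted 3-fold from 20 μM.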

Test [2] addresses T1, hPAD4 enzyme. The experiment in a line: RFMS1 assay (RapidFire mass spectrometry, BAEE substrate). It is filed as biochemical. The conditions noted are these: 5 nM hPAD4, 250 μM BAEE, 30 min preincubation at 37° C., 90 min reaction; read-out: RFMS 1 IC50. How it is done:
Compounds were solubilized in 100% DMSO to achieve a 10 mM compound concentration. Compound stock solutions were stored at RT. A series of dilutions were prepared in DMSO and mixed 8 times with 20 μL mixing volume. Final top concentration of compound in the assay is 50 μM. Final assay conditions were as follows: • Reaction volume: 26 μl • Assay buffer: 25 mM hepes, pH 7.5, 5 mM NaCl, 1 mM DTT, 0.2 mg/ml BSA, 0.01% CHAPS, 50 µM Calcium, and 5 μM TPEN • Final concentrations: 5 nM hPAD4 enzyme, 250 µM BAEE, and 0.5% DMSO • Total incubation time: 30 mins compound and enzyme preincubation at 37° C., 90 min enzyme/substrate reaction, 30 min reaction with phenyl glyoxal at 37° C. • Stop solution: 40 μl 5% TCA in ACN • 0.13 μL of compound solution was added to 13 μL of 10 nM PAD4 in assay buffer. After […] min 13 μl of 500 µM of BAEE was added in 25 mM hepes, pH 7.5, 5 mM NaCl, 1 mM DTT, 0.2 mg/ml BSA, 0.01% CHAPS, 50 μM Calcium, 5 μM TPEN was added and the reaction incubated for 90 min at 37° C. The enzymatic reaction was quenched by addition of 15 μl of 6.1N TCA, 100% Final Concentration is 20%, 35 μl of 8.5 mM phenyl glyoxal (final concentration 4 mM) is then added and the reaction is incubated for 30 min at 37° C.
After 30 minutes the plates are spun down to remove all precipitate. The enzyme reaction was quenched with an equal volume of methanol containing internal standard (modified citrulline). Samples were loaded onto the Rapid Fire RF300 system (Agilent) wherein they were first sipped for 1000 ms and then directly loaded to a C18 separations cartridge using a mixture of acetonitrile containing 0.01% formic acid for 3000 ms desalting. The flow rate of the mobile phase was 1.5 ml/min. Once the samples were eluted from the cartridge, a mobile phase of acetonitrile containing 0.01% formic acid was used to move the samples into the mass spectrometer for 4000 ms at a flow rate of 1.25 ml/min/Sciex API5500 triple quadrupole mass spectrometer (Applied Biosystems) equipped with ESI was used to analyze the peptidyl citrulline and internal standard ions.
MRM transition of product and internal standard were monitored at m/z 424.5 to 350.4 and m/z 293 to 247 respectively. The dwell time for each transition was set at 200 ms, and the ESI voltage was used at 5500 with a source temperature of 400° C. Extracted ion peaks for each transition were integrated using the Rapid Fire Integrator software. Peak area of analyte was normalized with internal standard.).
Compounds having an activity designated as “A” provided an IC50≤10 nM; compounds having an activity designated as “B” provided an IC50 11-100 nM; compounds having an activity designated as “C” provided an IC50 101-500 nM; compounds having an activity designated as “D” provided an IC50 501-1000 nM; compounds having an activity designated as “E” provided an IC50>1000 nM.

Bounds are passed on as bounds.

T1 sequence (Q9UM07 whole entry): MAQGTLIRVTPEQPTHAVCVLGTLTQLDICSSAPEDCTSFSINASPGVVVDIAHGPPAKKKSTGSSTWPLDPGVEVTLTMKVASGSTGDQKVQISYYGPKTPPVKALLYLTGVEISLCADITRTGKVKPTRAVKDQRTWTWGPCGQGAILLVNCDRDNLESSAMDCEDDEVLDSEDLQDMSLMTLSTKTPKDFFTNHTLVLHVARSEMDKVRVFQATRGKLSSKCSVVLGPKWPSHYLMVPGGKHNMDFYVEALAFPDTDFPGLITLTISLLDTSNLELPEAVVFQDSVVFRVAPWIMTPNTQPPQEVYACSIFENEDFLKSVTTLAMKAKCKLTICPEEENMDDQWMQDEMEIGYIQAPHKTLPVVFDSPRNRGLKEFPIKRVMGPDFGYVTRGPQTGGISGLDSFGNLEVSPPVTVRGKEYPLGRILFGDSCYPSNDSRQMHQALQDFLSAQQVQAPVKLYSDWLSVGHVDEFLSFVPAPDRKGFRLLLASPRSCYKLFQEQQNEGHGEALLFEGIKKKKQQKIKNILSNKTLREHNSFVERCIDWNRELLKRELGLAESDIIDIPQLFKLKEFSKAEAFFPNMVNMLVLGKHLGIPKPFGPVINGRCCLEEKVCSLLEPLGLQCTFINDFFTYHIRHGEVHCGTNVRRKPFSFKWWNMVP

Regarding `CN[C@H](C)CN1CCc2cc3c(cc2C1=O)nc(-c1cc2ccccc2n1CC1CC1)n3C` [Example 1, (R)-2-(1-(cyclopropylmethyl)-1H-indol-2-yl)-1-methyl-6-(2-(methylamino)propyl)-1,6,7,8-tetrahydro-5H-imidazo[4,5-g]isoquinolin-5-one], the results for the 50% inhibitory concentration (IC50) in test [1] and in test [2] were 101 to 500 nM and 501 to 1000 nM, respectively.
As for `C[C@H](CN1CCc2cc3c(cc2C1=O)nc(-c1cc2ccccc2n1CC1CC1)n3C)NCCF` [Example 3, (R)-2-(1-(cyclopropylmethyl)-1H-indol-2-yl)-6-(2-((2-fluoroethyl)amino)propyl)-1-methyl-1,6,7,8-tetrahydro-5H-imidazo[4,5-g]isoquinolin-5-one], the 50% inhibitory concentration (IC50) in test [1] and in test [2] was > 1000 nM throughout.
As to `C[C@@H](N)CN1CCc2cc3c(cc2C1=O)nc(-c1cc2ccccc2n1CC1CC1)n3C` [Example 5, (R)-6-(2-aminopropyl)-2-(1-(cyclopropylmethyl)-1H-indol-2-yl)-1-methyl-1,6,7,8-tetrahydro-5H-imidazo[4,5-g]isoquinolin-5-one], the IC50 in test [1] and in test [2] was 101 to 500 nM in each case.
For `Cn1c(-c2cc3ccccc3n2CC2CC2)nc2cc3c(cc21)CCN(CC(C)(C)N)C3=O` [Example 6, 6-(2-amino-2-methyl-propyl)-2-[1-(cyclopropylmethyl)indol-2-yl]-1-methyl-7,8-dihydroimidazo[4,5-g]isoquinolin-5-one], the IC50 in test [1] and in test [2] was > 1000 nM each time.
For the compound `CC[C@@H](N)CN1CCc2cc3c(cc2C1=O)nc(-c1cc2ccccc2n1CC1CC1)n3C` [Example 9, (R)-6-(2-aminobutyl)-2-(1-(cyclopropylmethyl)-1H-indol-2-yl)-1-methyl-1,6,7,8-tetrahydro-5H-imidazo[4,5-g]isoquinolin-5-one], the results for the IC50 in test [1] and in test [2] were 101 to 500 nM and 501 to 1000 nM, respectively.
Take `Cn1c(-c2cc3ccccc3n2CC2CC2)nc2cc3c(cc21)CCN(C[C@H](N)C1CC1)C3=O` [Example 10, (R)-6-(2-amino-2-cyclopropylethyl)-2-(1-(cyclopropylmethyl)-1H-indol-2-yl)-1-methyl-1,6,7,8-tetrahydro-5H-imidazo[4,5-g]isoquinolin-5-one]: the IC50 in test [1] and in test [2] was 101 to 500 nM in each case.
On to `CC(C)[C@@H](N)CN1CCc2cc3c(cc2C1=O)nc(-c1cc2ccccc2n1CC1CC1)n3C` [Example 11, (R)-6-(2-amino-3-methylbutyl)-2-(1-(cyclopropylmethyl)-1H-indol-2-yl)-1-methyl-1,6,7,8-tetrahydro-5H-imidazo[4,5-g]isoquinolin-5-one], for which the IC50 in test [1] and in test [2] was > 1000 nM each time.
In the case of `Cn1c(-c2cc3ccccc3n2CC2CC2)nc2cc3c(cc21)CCN(C[C@H](N)CF)C3=O` [Example 12, (S)-6-(2-amino-3-fluoropropyl)-2-(1-(cyclopropylmethyl)-1H-indol-2-yl)-1-methyl-1,6,7,8-tetrahydro-5H-imidazo[4,5-g]isoquinolin-5-one], the IC50 in test [1] and in test [2] was 101 to 500 nM in each case.
With `Cn1c(-c2cc3ccccc3n2CC2CC2)nc2cc3c(cc21)CCN(C[C@H]1COCCN1)C3=O` [Example 13, (S)-2-(1-(cyclopropylmethyl)-1H-indol-2-yl)-1-methyl-6-(morpholin-3-ylmethyl)-1,6,7,8-tetrahydro-5H-imidazo[4,5-g]isoquinolin-5-one], the IC50 lay within 501 to 1000 nM in test [1] and 101 to 500 nM in test [2].
Take `Cn1c(-c2cc3ccccc3n2CC2CC2)nc2cc3c(cc21)CCN(C[C@H](N)C(F)F)C3=O` [Example 14, (S)-6-(2-amino-3,3-difluoropropyl)-2-(1-(cyclopropylmethyl)-1H-indol-2-yl)-1-methyl-1,6,7,8-tetrahydro-5H-imidazo[4,5-g]isoquinolin-5-one]: the IC50 in test [1] was > 1000 nM; in test [2], 501 to 1000 nM.
Regarding `COc1cccc2cc(-c3nc4cc5c(cc4n3C)CCN(C[C@H](N)[C@H](C)F)C5=O)n(CC3CC3)c12` [Example 15a, 6-((2S,3S)-2-amino-3-fluorobutyl)-2-(1-(cyclopropylmethyl)-7-methoxy-1H-indol-2-yl)-1-methyl-1,6,7,8-tetrahydro-5H-imidazo[4,5-g]isoquinolin-5-one], the IC50 in test [1] and in test [2] was 101 to 500 nM each time.
For `COc1cccc2cc(-c3nc4cc5c(cc4n3C)CCN(C[C@H](N)C(C)F)C5=O)n(CC3CC3)c12` (stereo partly drawn) [Example 15b, 6-((2S,3R)-2-amino-3-fluorobutyl)-2-(1-(cyclopropylmethyl)-7-methoxy-1H-indol-2-yl)-1-methyl-1,6,7,8-tetrahydro-5H-imidazo[4,5-g]isoquinolin-5-one], the IC50 lay in the range of 501 to 1000 nM in test [1] and 101 to 500 nM in test [2].
With `COc1cccc2cc(-c3nc4cc5c(cc4n3C)CCN(C[C@@H](C)N)C5=O)n(CC3CC3)c12` [Example 35, (R)-6-(2-aminopropyl)-2-(1-(cyclopropylmethyl)-7-methoxy-1H-indol-2-yl)-1-methyl-1,6,7,8-tetrahydro-5H-imidazo[4,5-g]isoquinolin-5-one], the IC50 in test [1] and in test [2] was 11 to 100 nM throughout.
On to `Cc1cccc2cc(-c3nc4cc5c(cc4n3C)CCN(C[C@H](N)CF)C5=O)n(CC3CC3)c12` [Example 48, (S)-6-(2-amino-3-fluoropropyl)-2-(1-(cyclopropylmethyl)-7-methyl-1H-indol-2-yl)-1-methyl-1,6,7,8-tetrahydro-5H-imidazo[4,5-g]isoquinolin-5-one], for which the half-maximal inhibitory concentration (IC50) in test [1] and in test [2] was 101 to 500 nM throughout.
As for `COc1cccc2cc(-c3nc4cc5c(cc4n3C)CCN(C[C@H](N)CF)C5=O)n(CC3CC3)c12` [Example 53, (S)-6-(2-amino-3-fluoropropyl)-2-(1-(cyclopropylmethyl)-7-methoxy-1H-indol-2-yl)-1-methyl-1,6,7,8-tetrahydro-5H-imidazo[4,5-g]isoquinolin-5-one], the IC50 in test [1] lay in the range of 101 to 500 nM; in test [2], 11 to 100 nM.
In the case of `Cc1cc(C(N)=O)c(F)cc1-c1ccc2cc(-c3nc4cc5c(cc4n3C)CCN(C[C@H](N)CF)C5=O)n(CC3CC3)c2n1` [Example 60, (S)-4-(2-(6-(2-amino-3-fluoropropyl)-1-methyl-5-oxo-5,6,7,8-tetrahydro-1H-imidazo[4,5-g]isoquinolin-2-yl)-1-(cyclopropylmethyl)-1H-pyrrolo[2,3-b]pyridin-6-yl)-2-fluoro-5-methylbenzamide], the IC50 in test [1] was 101 to 500 nM; in test [2], 11 to 100 nM.
For `COc1cc(F)cc2cc(-c3nc4cc5c(cc4n3C)CCN(C[C@H](N)CF)C5=O)n(CC3CC3)c12` [Example 65, (S)-6-(2-amino-3-fluoropropyl)-2-(1-(cyclopropylmethyl)-5-fluoro-7-methoxy-1H-indol-2-yl)-1-methyl-1,6,7,8-tetrahydro-5H-imidazo[4,5-g]isoquinolin-5-one] the same measures were 101 to 500 nM and 11 to 100 nM.
Consider `COC1CCN(c2ccc3cc(-c4nc5cc6c(cc5n4C)CCN(C[C@H]4COCCN4)C6=O)n(CC4CC4)c3c2)CC1` [Example 249, (S)-2-(1-(cyclopropylmethyl)-6-(4-methoxypiperidin-1-yl)-1H-indol-2-yl)-1-methyl-6-(morpholin-3-ylmethyl)-1,6,7,8-tetrahydro-5H-imidazo[4,5-g]isoquinolin-5-one], for which the IC50 in test [2] was 501 to 1000 nM.
